From ChEMBL document CHEMBL3046319, “PCR-RFLP detection of the E198A mutation conferring resistance to benzimidazoles in field isolates of Monilinia laxa from Greece” (Crop Prot, 2012)
In brackets after ≈: the same amount, converted by molar mass. Activity calls are given as the source filed them. The calls are words filed in the database; no cut-off is given here.

Key:
Monilinia laxa [1] = test: Fungicidal activity against Monilinia laxa isolate MLBO5 assessed as virulence in prune fruits assessed as virulence treated 10 min prior to mycelial inoculation at 24 degC after 10 days relative to isolate MLX1by pathogenicity bioassay; assay type: functional
Monilinia laxa [2] = test: Fungicidal activity against Monilinia laxa isolate MLX3 assessed as reduction in mycelial growth rate at 1 to 10 ug/ml at 25 to 28 degC; assay type: functional, organism-based
Monilinia laxa [3] = test: Fungicidal activity against Monilinia laxa isolate MLP7 assessed as reduction in mycelial growth rate at 1 to 10 ug/ml at 31 degC after 5 days; assay type: functional, organism-based
Monilinia laxa [4] = test: Fungicidal activity against Monilinia laxa isolate MLG1 assessed as mean number of conidia produced in the colony at 25 degC after 12 days by haemocytometer; assay type: functional
Monilinia laxa [5] = test: Fungicidal activity against Monilinia laxa isolate MLBO4 assessed as reduction in mycelial growth rate at 1 to 10 ug/ml at 31 degC after 5 days; assay type: functional, organism-based
Monilinia laxa [6] = test: Fungicidal activity against Monilinia laxa isolate MLP2 assessed as mean mycelial colony diameter at 25 degC after 4 days; assay type: functional
Monilinia laxa [7] = test: Fungicidal activity against Monilinia laxa isolate MLBO8 assessed as reduction in mycelial growth rate at 1 to 10 ug/ml at 31 degC after 5 days; assay type: functional, organism-based
Monilinia laxa [8] = test: Fungicidal activity against Monilinia laxa isolate MLBO3 assessed as reduction in mycelial growth rate at 1 to 10 ug/ml at 31 degC after 5 days; assay type: functional, organism-based
Monilinia laxa [9] = test: Fungicidal activity against Monilinia laxa isolate MLG1 assessed as reduction in mycelial growth rate at 25 degC after 4 days; assay type: functional, organism-based; conditions: isolate MLG1, 96 h
Monilinia laxa [10] = test: Fungicidal activity against Monilinia laxa isolate MLK1 assessed as reduction in mycelial growth rate at 1 to 10 ug/ml at 25 to 28 degC; assay type: functional, organism-based
Monilinia laxa [11] = test: Fungicidal activity against Monilinia laxa isolate MLX1 assessed as reduction in mycelial growth rate at 25 degC after 4 days; assay type: functional, organism-based; conditions: isolate MLX1, 96 h
Monilinia laxa [12] = test: Fungicidal activity against Monilinia laxa isolate MLB1 assessed as reduction in mycelial growth rate at 25 degC after 4 days; assay type: functional, organism-based; conditions: isolate MLB1, 96 h
Monilinia laxa [13] = test: Fungicidal activity against Monilinia laxa isolate MLP4 assessed as reduction in mycelial growth rate at 1 to 10 ug/ml at 25 to 28 degC; assay type: functional, organism-based
Monilinia laxa [14] = test: Fungicidal activity against Monilinia laxa isolate MLBO1 assessed as reduction in mycelial growth rate at 1 to 10 ug/ml at 31 degC after 5 days; assay type: functional, organism-based
Monilinia laxa [15] = test: Fungicidal activity against Monilinia laxa isolate MLX1 assessed as mycelial growth at 1 ug/ml at 25 degC after 4 days; assay type: functional
Monilinia laxa [16] = test: Fungicidal activity against Monilinia laxa isolate MLP2 assessed as mycelial growth at 1 ug/ml at 25 degC after 4 days; assay type: functional
Monilinia laxa [17] = test: Fungicidal activity against Monilinia laxa isolate MLG1 in prune fruits assessed as virulence treated 10 min prior to mycelial inoculation at 24 degC after 10 days relative to isolate MLX1by pathogenicity bioassay; assay type: functional
Monilinia laxa [18] = test: Fungicidal activity against Monilinia laxa isolate MLC5 assessed as reduction in mycelial growth rate at 25 degC after 4 days; assay type: functional, organism-based; conditions: isolate MLC5, 96 h
Monilinia laxa [19] = test: Fungicidal activity against Monilinia laxa isolate MLK12 assessed as reduction in mycelial growth rate at 25 degC after 4 days; assay type: functional, organism-based; conditions: isolate MLK12, 96 h
Monilinia laxa [20] = test: Fungicidal activity against Monilinia laxa isolate MLK10 assessed as reduction in mycelial growth rate at 1 to 10 ug/ml at 31 degC after 5 days; assay type: functional, organism-based
Monilinia laxa [21] = test: Fungicidal activity against Monilinia laxa isolate MLP4 assessed as reduction in mycelial growth rate at 25 degC after 4 days; assay type: functional, organism-based; conditions: isolate MLP4, 96 h
Monilinia laxa [22] = test: Fungicidal activity against Monilinia laxa isolate MLG6 assessed as reduction in mycelial growth rate at 1 to 10 ug/ml at 31 degC after 5 days; assay type: functional, organism-based
Monilinia laxa [23] = test: Fungicidal activity against Monilinia laxa isolate MLX1 assessed as reduction in mycelial growth rate at 1 to 10 ug/ml at 25 to 28 degC; assay type: functional, organism-based
Monilinia laxa [24] = test: Fungicidal activity against Monilinia laxa isolate MLG7 assessed as reduction in mycelial growth rate at 25 degC after 4 days; assay type: functional, organism-based; conditions: isolate MLG7, 96 h
Monilinia laxa [25] = test: Fungicidal activity against Monilinia laxa isolate MLNS1 assessed as reduction in mycelial growth rate at 1 to 10 ug/ml at 31 degC after 5 days; assay type: functional, organism-based
Monilinia laxa [26] = test: Fungicidal activity against Monilinia laxa isolate MLK5 assessed as reduction in mycelial growth rate at 1 to 10 ug/ml at 31 degC after 5 days; assay type: functional, organism-based
Monilinia laxa [27] = test: Fungicidal activity against Monilinia laxa isolate MLB1 assessed as reduction in mycelial growth rate at 1 to 10 ug/ml at 31 degC after 5 days; assay type: functional, organism-based
Monilinia laxa [28] = test: Fungicidal activity against Monilinia laxa isolate MLP2 assessed as reduction in mycelial growth rate at 1 to 10 ug/ml at 31 degC after 5 days; assay type: functional, organism-based
Monilinia laxa [29] = test: Fungicidal activity against Monilinia laxa isolate MLK4 assessed as reduction in mycelial growth rate at 1 to 10 ug/ml at 28 degC after 8 days; assay type: functional, organism-based
Monilinia laxa [30] = test: Fungicidal activity against Monilinia laxa isolate MLG1 assessed as reduction in mycelial growth rate at 1 to 10 ug/ml at 31 degC after 5 days; assay type: functional, organism-based
Monilinia laxa [31] = test: Fungicidal activity against Monilinia laxa isolate MLBO5 assessed as mean number of conidia produced in the colony at 25 degC after 12 days by haemocytometer; assay type: functional
Monilinia laxa [32] = test: Fungicidal activity against Monilinia laxa isolate MLBO5 assessed as reduction in mycelial growth rate at 1 to 10 ug/ml at 31 degC after 5 days; assay type: functional, organism-based
Monilinia laxa [33] = test: Fungicidal activity against Monilinia laxa isolate MLK12 assessed as reduction in mycelial growth rate at 1 to 10 ug/ml at 25 to 28 degC; assay type: functional, organism-based
Monilinia laxa [34] = test: Fungicidal activity against Monilinia laxa isolate MLK2 assessed as reduction in mycelial growth rate at 1 to 10 ug/ml at 28 degC after 8 days; assay type: functional, organism-based
Monilinia laxa [35] = test: Fungicidal activity against Monilinia laxa isolate MLG3 assessed as reduction in mycelial growth rate at 1 to 10 ug/ml at 31 degC after 5 days; assay type: functional, organism-based
Monilinia laxa [36] = test: Fungicidal activity against Monilinia laxa isolate MLX2 assessed as reduction in mycelial growth rate at 25 degC after 4 days; assay type: functional, organism-based; conditions: isolate MLX2, 96 h
Monilinia laxa [37] = test: Fungicidal activity against Monilinia laxa isolate MLK1 assessed as mean mycelial colony diameter at 25 degC after 4 days; assay type: functional
Monilinia laxa [38] = test: Fungicidal activity against Monilinia laxa isolate KX5 assessed as reduction in mycelial growth rate at 25 degC after 4 days; assay type: functional, organism-based; conditions: isolate KX5, 96 h
Monilinia laxa [39] = test: Fungicidal activity against Monilinia laxa isolate MLK9 assessed as reduction in mycelial growth rate at 1 to 10 ug/ml at 31 degC after 5 days; assay type: functional, organism-based
Monilinia laxa [40] = test: Fungicidal activity against Monilinia laxa isolate MLK8 assessed as reduction in mycelial growth rate at 1 to 10 ug/ml at 31 degC after 5 days; assay type: functional, organism-based
Monilinia laxa [41] = test: Fungicidal activity against Monilinia laxa isolate MLC3 assessed as reduction in mycelial growth rate at 25 degC after 4 days; assay type: functional, organism-based; conditions: isolate MLC3, 96 h
Monilinia laxa [42] = test: Fungicidal activity against Monilinia laxa isolate MLX3 assessed as reduction in mycelial growth rate at 1 to 10 ug/ml at 28 degC after 8 days; assay type: functional, organism-based

COC(=O)Nc1nc2ccccc2[nH]1 [CARBENDAZIM]
Activity (Monilinia laxa [1]): 100%
inhibition (Monilinia laxa [2]): inactive
inhibition (Monilinia laxa [3]): Active
Activity (Monilinia laxa [4]): 5.85 /cm2
inhibition (Monilinia laxa [5]): Active
Activity (Monilinia laxa [6]): 25.5 mm
inhibition (Monilinia laxa [7]): Active
inhibition (Monilinia laxa [8]): Active
EC50 (Monilinia laxa [9]): 0.1 µg/mL (≈ 0.523 µM)
inhibition (Monilinia laxa [10]): inactive
EC50 (Monilinia laxa [11]): > 50 µg/mL
EC50 (Monilinia laxa [12]): > 50 µg/mL
inhibition (Monilinia laxa [13]): inactive
inhibition (Monilinia laxa [14]): Active
Activity (Monilinia laxa [15]): 100%
Activity (Monilinia laxa [16]): 0%
Activity (Monilinia laxa [17]): 100%
EC50 (Monilinia laxa [18]): 0.11 µg/mL (≈ 0.575 µM)
EC50 (Monilinia laxa [19]): > 50 µg/mL
inhibition (Monilinia laxa [20]): Active
EC50 (Monilinia laxa [21]): > 50 µg/mL
inhibition (Monilinia laxa [22]): Active
inhibition (Monilinia laxa [23]): inactive
EC50 (Monilinia laxa [24]): 0.12 µg/mL (≈ 0.628 µM)
inhibition (Monilinia laxa [25]): Active
inhibition (Monilinia laxa [26]): Active
inhibition (Monilinia laxa [27]): Active
inhibition (Monilinia laxa [28]): Active
inhibition (Monilinia laxa [29]): inactive
inhibition (Monilinia laxa [30]): Active
Activity (Monilinia laxa [31]): 3.92 /cm2
inhibition (Monilinia laxa [32]): Active
inhibition (Monilinia laxa [33]): inactive
inhibition (Monilinia laxa [34]): inactive
inhibition (Monilinia laxa [35]): Active
EC50 (Monilinia laxa [36]): 0.12 µg/mL (≈ 0.628 µM)
Activity (Monilinia laxa [37]): 30.55 mm
EC50 (Monilinia laxa [38]): > 50 µg/mL
inhibition (Monilinia laxa [39]): Active
inhibition (Monilinia laxa [40]): Active
EC50 (Monilinia laxa [41]): > 50 µg/mL
inhibition (Monilinia laxa [42]): inactive
